Results published in ChEMBL document CHEMBL1147220, “Divinatorins A-C, new neoclerodane diterpenoids from the controlled sage Salvia divinorum” (2003).
Converted amounts (≈) assume the structure as drawn. The source made the active and inactive calls. No cut-off for these calls is given here.

Columns and labels:
Bacillus subtilis [1] = experiment: Antibacterial activity against Bacillus subtilis ATCC 6633 at 100 ug/disk by disk diffusion method; assay type: functional
Candida albicans [2] = experiment: Antifungal activity against Candida albicans ATCC 90028 at 100 ug/disk by disk diffusion method; assay type: functional, organism-based
Staphylococcus aureus [3] = experiment: Antibacterial activity against Staphylococcus aureus ATCC 29213 at 100 ug/disk by disk diffusion method; assay type: functional, organism-based
Escherichia coli [4] = experiment: Antibacterial activity against Escherichia coli ATCC 25922 at 100 ug/disk by disk diffusion method; assay type: functional, organism-based
Bacillus subtilis [5] = experiment: Antibacterial activity against Bacillus subtilis ATCC 6633 at 100 ug/mL by microdilution method; assay type: functional, organism-based
Staphylococcus aureus [6] = experiment: Antibacterial activity against Staphylococcus aureus ATCC 29213 at 100 ug/mL by microdilution method; assay type: functional, organism-based
Escherichia coli [7] = experiment: Antibacterial activity against Escherichia coli ATCC 25922 at 100 ug/mL by microdilution method; assay type: functional, organism-based
Candida albicans [8] = experiment: Antifungal activity against Candida albicans ATCC 90028 at 100 ug/mL by microdilution method; assay type: functional, organism-based
Bacillus subtilis [9] = experiment: Antibacterial activity against Bacillus subtilis ATCC 6633 by microdilution method; assay type: functional
Staphylococcus aureus [10] = experiment: Antibacterial activity against Staphylococcus aureus ATCC 29213 by microdilution method; assay type: functional

In the case of C[C@@H]1CC[C@@]2(C)C(C(=O)O)=CC[C@H](O)[C@@H]2[C@@]1(C)CCc1ccoc1, the Activity (Bacillus subtilis [1]) is reported as “inactive”, the Activity (Candida albicans [2]) is reported as “inactive” and the Activity (Staphylococcus aureus [3]) is reported as “inactive”. For the same compound, the Activity (Escherichia coli [4]) was “inactive”, the Activity (Bacillus subtilis [5]) was “inactive” and the Activity (Staphylococcus aureus [6]) was “inactive”. The Activity (Escherichia coli [7]) was “inactive” and the Activity (Candida albicans [8]) was “inactive”.
C[C@H]1CC[C@]2(C)C(C(=O)O)=CCC[C@H]2[C@]1(C)CCc1ccoc1 gave a zone of inhibition at 100 µg/disc (Bacillus subtilis [1]; read-out: IZ) of 10 mm, an MIC (Bacillus subtilis [9]) of 12.5 µg/mL (≈ 39.5 µM) and an MIC (Staphylococcus aureus [10]) of 25 µg/mL (≈ 79 µM).
With COC(=O)C1=CC[C@H](O)[C@@H]2[C@@](C)(CCc3ccoc3)[C@H](CO)CC[C@@]12C the Activity (Bacillus subtilis [1]) was “inactive”, the Activity (Candida albicans [2]) was “inactive” and the Activity (Staphylococcus aureus [3]) was “inactive”. The Activity (Escherichia coli [4]) was “inactive”, the Activity (Bacillus subtilis [5]) was “inactive” and the Activity (Staphylococcus aureus [6]) was “inactive”. For the same compound, the Activity (Escherichia coli [7]) was “inactive” and the Activity (Candida albicans [8]) was “inactive”.
CC(=O)OC[C@@H]1CC[C@@]2(C)C(C(=O)O)=CCC[C@@H]2[C@@]1(C)CCc1ccoc1 was tested, and the Activity (Bacillus subtilis [1]) was “inactive”, the Activity (Candida albicans [2]) was “inactive” and the Activity (Staphylococcus aureus [3]) was “inactive”. The Activity (Escherichia coli [4]) was “inactive”, the Activity (Bacillus subtilis [5]) was “inactive” and the Activity (Staphylococcus aureus [6]) was “inactive”. For the same compound, the Activity (Escherichia coli [7]) was “inactive” and the Activity (Candida albicans [8]) was “inactive”.
C[C@@H]1CC[C@@]2(C)C(C(=O)O)=CCC[C@@H]2[C@@]1(C)CCc1ccoc1 was tested, and the MIC (Bacillus subtilis [9]) was 0.78 µg/mL (≈ 2.46 µM).
